In brackets after ≈: the same amount, converted by molar mass. Read-outs that look alike come from different tables or passages of the source.
What was measured:
Assay type in all cases: cell-based
Salmonella spp. = test: MIC by NCCLS broth microdilution, 1100 Japanese clinical isolates 1997-1998; conditions: Salmonella spp. (n=29)
Streptococcus pneumoniae [1] = test: MIC by two-fold serial agar dilution, Sensitivity Disk agar-N (Kitasato isolates); conditions: for MIC90: read-out: MIC90; for MIC: read-out: MIC Range
Enterococcus faecium = test: MIC by NCCLS broth microdilution, 1100 Japanese clinical isolates 1997-1998; conditions: for MIC: Enterococcus faecium
Enterobacter cloacae = test: as above; conditions: Enterobacter cloacae (n=40)
Enterococcus faecalis = test: as above; conditions: for MIC50 / MIC90: Enterococcus faecalis; for MIC90: read-out: MIC90
Streptococcus pneumoniae [2] = test: as above; conditions: for MIC50 / MIC90 / MIC: Streptococcus pneumoniae; for MIC50: read-out: MIC50; for MIC90: read-out: MIC90; for MIC: Streptococcus pneumoniae quinolone resistant
Enterococcus gallinarum = test: as above; conditions: Enterococcus gallinarum, GALLINARUM
Klebsiella pneumoniae = test: as above; conditions: Klebsiella pneumoniae (n=35)
Staphylococcus aureus = test: as above; conditions: for MIC: Staphylococcus aureus quinolone resistant
[3] = Enterococcus faecalis ciprofloxacin susceptible (n=24)
[4] = Enterococcus faecalis ciprofloxacin resistant (n=15)
[5] = Streptococcus pneumoniae amoxicillin resistant (n=40)
[6] = Streptococcus pneumoniae amoxicillin susceptible (n=35)
[7] = Streptococcus pneumoniae erythromycin resistant (n=34)
[8] = Streptococcus pneumoniae erythromycin susceptible (n=11)
[9] = Staphylococcus aureus oxacillin susceptible (n=41)
[10] = Staphylococcus aureus, Staphylococcus aureus oxacillin resistant (n=57)

`NC1CCN(c2nc3c(cc2F)c(=O)c(C(=O)O)cn3-c2ccc(F)cc2F)C1` (stereo not drawn) [Tosufloxacin, tosufloxacin] was tested, and the MIC50 (Salmonella spp.) was 0.032 mg/L (≈ 0.0791 µM), the MIC90 (Salmonella spp.) was 0.063 mg/L (≈ 0.156 µM) and the “MIC Range” value (Salmonella spp.) was 0.016 to 0.063 mg/L. For the same compound, the MIC50 (Streptococcus pneumoniae [1]; Ciprofloxacin-susceptible (94)) was 0.125 mg/L (≈ 0.309 µM), the MIC50 (Streptococcus pneumoniae [1]; Erythromycin-resistant (37)) was 0.125 mg/L (≈ 0.309 µM) and the MIC50 (Streptococcus pneumoniae [1]; Minocycline-resistant (37)) was 0.125 mg/L (≈ 0.309 µM). The MIC50 (Streptococcus pneumoniae [1]; Streptococcus pneumoniae) was 0.125 mg/L (≈ 0.309 µM), the MIC90 (Streptococcus pneumoniae [1]; Streptococcus pneumoniae, 18 h, Ciprofloxacin-resistant (21), ciprofloxacin MIC ≥8 µg/ml) was 8 mg/L (≈ 19.8 µM) and the MIC (Streptococcus pneumoniae [1]; Streptococcus pneumoniae, 18 h, Ciprofloxacin-resistant (21)) was 0.25 to 16 mg/L (≈ 0.618 to 39.6 µM). The MIC (Streptococcus pneumoniae [1]; Streptococcus pneumoniae, 18 h, Ciprofloxacin-susceptible (94)) was 0.063 to 0.5 mg/L (≈ 0.156 to 1.24 µM), the MIC (Streptococcus pneumoniae [1]; Streptococcus pneumoniae, 18 h, Erythromycin-resistant (37)) was 0.063 to 4 mg/L (≈ 0.156 to 9.89 µM) and the MIC (Streptococcus pneumoniae [1]; Streptococcus pneumoniae, 18 h, Minocycline-resistant (37)) was 0.063 to 4 mg/L (≈ 0.156 to 9.89 µM). The MIC (Streptococcus pneumoniae [1]; Streptococcus pneumoniae, 18 h, Penicillin-resistant (19)) was 0.063 to 0.5 mg/L (≈ 0.156 to 1.24 µM), the MIC50 (Streptococcus pneumoniae [1]; Streptococcus pneumoniae, Ciprofloxacin-resistant (21), read-out: MIC50) was 4 mg/L (≈ 9.89 µM) and the MIC90 (Streptococcus pneumoniae [1]; Streptococcus pneumoniae, Ciprofloxacin-susceptible (94)) was 0.25 mg/L (≈ 0.618 µM). It also gave an MIC90 (Streptococcus pneumoniae [1]; Streptococcus pneumoniae, Erythromycin-resistant (37)) of 0.5 mg/L (≈ 1.24 µM), an MIC90 (Streptococcus pneumoniae [1]; Streptococcus pneumoniae, Minocycline-resistant (37)) of 0.5 mg/L (≈ 1.24 µM) and an MIC90 (Streptococcus pneumoniae [1]; Streptococcus pneumoniae, Penicillin-resistant (19)) of 0.25 mg/L (≈ 0.618 µM). The MIC50 (Enterococcus faecium; Enterococcus faecium (n=39)) was > 16 mg/L, the MIC90 (Enterococcus faecium; Enterococcus faecium (n=39)) was > 16 mg/L and the MIC (Enterococcus faecium; Enterococcus faecium (vanA) vancomycin resistant, strain TMS1) was > 16 mg/L. For the same compound, the MIC (Enterococcus faecium; Enterococcus faecium (vanA) vancomycin resistant, strain TMS2) was 2 mg/L (≈ 4.95 µM), the MIC (Enterococcus faecium; Enterococcus faecium (vanA) vancomycin resistant, strain TMS3) was > 16 mg/L and the MIC (Enterococcus faecium; Enterococcus faecium (vanA) vancomycin resistant, strain TMS4) was > 16 mg/L. For the same compound, the MIC (Enterococcus faecium; Enterococcus faecium (vanA) vancomycin resistant, strain TMS5) was 4 mg/L (≈ 9.89 µM), the MIC (Enterococcus faecium; Enterococcus laecium (van B) vancomycin resistant, strain TMS6) was > 16 mg/L and the MIC (Enterococcus faecium; Enterococcus laecium (van B) vancomycin resistant, strain TMS7) was > 16 mg/L. For the same compound, the MIC50 (Enterobacter cloacae) was 0.032 mg/L (≈ 0.0791 µM), the MIC90 (Enterobacter cloacae) was 1 mg/L (≈ 2.47 µM) and the “MIC Range” value (Enterobacter cloacae) was ≤0.008 to 2 mg/L. The “MIC Range” value (Enterococcus faecalis; [3]) was 0.5 - 0.5 µg/ml, the MIC50 (Enterococcus faecalis; [4]) was 32 mg/L (≈ 79.1 µM) and the MIC90 (Enterococcus faecalis; [4]) was 32 mg/L (≈ 79.1 µM). For the same compound, the MIC50 (Enterococcus faecalis; [3]) was 0.5 mg/L (≈ 1.24 µM), the MIC90 (Enterococcus faecalis; [3]) was 0.5 mg/L (≈ 1.24 µM) and the “MIC Range” value (Streptococcus pneumoniae [2]; [5]) was 0.063 to 4 mg/L. For the same compound, the “MIC Range” value (Streptococcus pneumoniae [2]; [6]) was 0.125 to 2 mg/L, the “MIC Range” value (Streptococcus pneumoniae [2]; [7]) was 0.063 to 4 mg/L and the “MIC Range” value (Streptococcus pneumoniae [2]; [8]) was 0.125 to 0.25 mg/L. For the same compound, the MIC50 (Streptococcus pneumoniae [2]; [5]) was 0.25 mg/L (≈ 0.618 µM), the MIC90 (Streptococcus pneumoniae [2]; [5]) was 0.25 mg/L (≈ 0.618 µM) and the MIC50 (Streptococcus pneumoniae [2]; [6]) was 0.25 mg/L (≈ 0.618 µM). The MIC90 (Streptococcus pneumoniae [2]; [6]) was 0.5 mg/L (≈ 1.24 µM), the MIC50 (Streptococcus pneumoniae [2]; [7]) was 0.25 mg/L (≈ 0.618 µM) and the MIC90 (Streptococcus pneumoniae [2]; [7]) was 0.25 mg/L (≈ 0.618 µM). The MIC50 (Streptococcus pneumoniae [2]; [8]) was 0.25 mg/L (≈ 0.618 µM), the MIC90 (Streptococcus pneumoniae [2]; [8]) was 0.25 mg/L (≈ 0.618 µM) and the MIC (Streptococcus pneumoniae [2]; strain TMS1) was 0.5 mg/L (≈ 1.24 µM). It also gave an MIC (Streptococcus pneumoniae [2]; strain TMS2) of 8 mg/L (≈ 19.8 µM), an MIC (Enterococcus gallinarum) of 0.125 mg/L (≈ 0.309 µM) and an MIC (Enterococcus gallinarum; Enterococcus gallinarum (vanC1), strain TMS1, read-out: MIC) of 0.25 mg/L (≈ 0.618 µM). It also gave an MIC (Enterococcus gallinarum; Enterococcus gallinarum (vanC1), strain TMS2, read-out: MIC) of 0.5 mg/L (≈ 1.24 µM), an MIC (Enterococcus gallinarum; Enterococcus gallinarum (vanC1), strain TMS3, read-out: MIC) of 0.5 mg/L (≈ 1.24 µM) and an MIC50 (Klebsiella pneumoniae) of 0.032 mg/L (≈ 0.0791 µM). The “MIC Range” value (Klebsiella pneumoniae) was 0.016 to 2 mg/L, the MIC90 (Klebsiella pneumoniae; read-out: MIC90) was 0.063 mg/L (≈ 0.156 µM) and the MIC90 (Staphylococcus aureus; [9]) was 0.125 mg/L (≈ 0.309 µM). The “MIC Range” value (Staphylococcus aureus; [9]) was 0.016 to 1 mg/L, the MIC50 (Staphylococcus aureus; [10]) was 4 mg/L (≈ 9.89 µM) and the MIC90 (Staphylococcus aureus; [10]) was > 16 mg/L. For the same compound, the MIC50 (Staphylococcus aureus; Staphylococcus aureus, Staphylococcus aureus oxacillin susceptible (n=41)) was 0.063 mg/L (≈ 0.156 µM), the MIC (Staphylococcus aureus; Staphylococcus aureus, strain TMS1* (spontaneous mutant resistant to ciprofloxacin)) was 0.25 mg/L (≈ 0.618 µM) and the MIC (Staphylococcus aureus; Staphylococcus aureus, strain TMS3, read-out: MIC) was > 16 mg/L. The MIC (Staphylococcus aureus; Staphylococcus aureus, strain TMS4, read-out: MIC) was 4 mg/L (≈ 9.89 µM), the MIC (Staphylococcus aureus; Staphylococcus aureus, strain TMS5, read-out: MIC) was 4 mg/L (≈ 9.89 µM) and the MIC (Staphylococcus aureus; Staphylococcus aureus, strain TMS6, read-out: MIC) was 2 mg/L (≈ 4.95 µM).

Reference: patent publication EP1561465A2, “Methods of use of fluoroquinolone compounds against bacteria” (LG Life Sciences, Ltd., priority 1999, dated 2001)
